Measurements: patent publication US20090111781A1, “Use of Cymipristone Type Compounds in Aids Treatment” (SHANGHAI THREE-ALLIANCE BIOTECHNOLOGIES CO., LTD., priority 2005, published 2009)

Biological target: T1, androgen receptor (AR) (Homo sapiens, UniProt P10275)
T1 sequence (P10275 1-920): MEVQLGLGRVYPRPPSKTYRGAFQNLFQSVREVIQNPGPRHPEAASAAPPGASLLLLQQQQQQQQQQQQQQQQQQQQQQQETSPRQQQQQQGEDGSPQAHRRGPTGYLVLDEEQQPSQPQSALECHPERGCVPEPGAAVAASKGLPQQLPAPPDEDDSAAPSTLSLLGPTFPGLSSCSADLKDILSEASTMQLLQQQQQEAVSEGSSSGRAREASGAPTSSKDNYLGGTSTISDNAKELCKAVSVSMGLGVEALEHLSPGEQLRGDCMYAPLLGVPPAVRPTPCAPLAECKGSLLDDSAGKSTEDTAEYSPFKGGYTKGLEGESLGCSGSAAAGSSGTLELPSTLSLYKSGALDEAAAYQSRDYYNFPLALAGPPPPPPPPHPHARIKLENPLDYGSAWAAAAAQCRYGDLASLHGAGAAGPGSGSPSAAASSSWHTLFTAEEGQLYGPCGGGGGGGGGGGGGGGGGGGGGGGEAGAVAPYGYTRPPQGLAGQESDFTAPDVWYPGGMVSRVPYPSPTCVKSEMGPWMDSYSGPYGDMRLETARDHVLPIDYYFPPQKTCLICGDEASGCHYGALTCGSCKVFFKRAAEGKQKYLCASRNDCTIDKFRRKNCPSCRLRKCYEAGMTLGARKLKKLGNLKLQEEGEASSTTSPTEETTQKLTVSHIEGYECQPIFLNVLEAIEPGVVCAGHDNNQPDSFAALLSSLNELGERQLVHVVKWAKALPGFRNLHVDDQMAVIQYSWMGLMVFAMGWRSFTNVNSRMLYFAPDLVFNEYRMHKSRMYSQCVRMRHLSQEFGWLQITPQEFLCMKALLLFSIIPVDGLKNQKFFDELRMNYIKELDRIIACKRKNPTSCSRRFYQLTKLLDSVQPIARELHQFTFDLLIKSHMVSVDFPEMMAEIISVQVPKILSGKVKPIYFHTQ
Test: Binding activity on human nuclear receptor AR
Conditions: mean ± SD, n = 4
Experimental: Buffer solution is composed of 25 mM NaPO4, 20 mM NaMoO4, 10 mM KF and 10% glycerol (pH=7.3) and stored under 4° C. Stock solution is prepared with CHAPS and DTT and stored under −20° C. […] Add 2.5 μl/hole into 96-pore plate. Take out appropriate amount of buffer solution reserve into solution to make the final concentration of CHAPS and DDT to become 0.25 mM and 2 mM respectively. Add protease inhibitors (aprotinin and leupeptin) to make its final concentration to become 1 μg/μl, and place in an ice bath. After adding human nuclear receptor GR (1:8), PR (1:100), ER (1:2000), AR (1:200) and MR (1:40) into the reaction system respectively, adequately mix suitable quantity of [^3H]-dexamethasone, [^3H]-progesterone, [^3H]-estradiol and [^3H]-DHT (from Amersham), rapidly add into 96-pore plate (100 μl/pore) and incubate overnight under 4° C. On the next day, add 25 μl of hydroxyapatite suspension into each pore and mix with shaking. After incubating for 10 min, separate by centrifuge for 3 min at 2500 rpm. The precipitate is washed with 100 μl of buffer solution and separated by centrifuge twice. Add 150 μl of scintillation solution (from Perkin Elmer) into each pore, mix with shaking and count by MicroBeta counter.

With `CC#C[C@]1(O)CC[C@H]2[C@@H]3CCC4=CC(=O)CCC4=C3[C@@H](c3ccc(N(C)C4CCCCC4)cc3)C[C@@]21C` [Cymipristone, 11β-[4-(N-methyl-N-cyclohexylamino)phenyl]-17α-(1-propynyl)-17β-hydroxyl-4,9-estradiene-3-one] the IC50 was 69.6 ± 15.4 nM.
